Results reported in patent publication US12371428B2 (Exelixis, Inc., priority 2019, dated 2025).
Where a name gives a salt, the structure may show the parent alone.

Legend:
[1] = biological target: Human KDR (residues 790-1356) (Homo sapiens (Human), UniProt P35968); assay: Human KDR kinase assay, HTRF KinEase (Example B-2); assay type: biochemical; details: protocol of Example B-2 (other compounds)
In short: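 Ten compound concentrations (3% DMSO final) were pre-plated, then KDR (790-1356) with biotinylated peptide in Mg/Mn/DTT buffer was added; ATP at Km (4.0 μM) started a 40 min room-temperature reaction. Detection used Eu-TK antibody and SA-XL665 in EDTA buffer; activity normalized to DMSO and reference inhibitor, IC50 by logistic fit.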

[2] = biological target: Human MET (residues 956-1390) (Homo sapiens (Human), UniProt P08581); assay: Human Met kinase assay, HTRF KinEase (Example D-2); assay type: biochemical; details: protocol of Example D-2 (other compounds); read-out: c-Met IC50
In short: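 MET kinase domain (956-1390), 0.1 ng/well, in buffer with 5 mM MgCl2, 1 mM DTT and 1 mM MnCl2, phosphorylated a biotinylated peptide at ATP Km for 40 min at RT; 10 concentrations, 3% DMSO final. EDTA-stopped HTRF read after 60 min; IC50 from a 4-parameter logistic fit.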

[3] = biological target: KDR (phospho-KDR, VEGF165-stimulated HUVEC cells) (Homo sapiens (Human), UniProt P35968); assay: KDR autophosphorylation ELISA in HUVEC cells (Example G); assay type: cell-based; details: cellular activity; KDR autophosphorylation ELISA in HUVEC cells
In short: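 Read-out is phospho-KDR measured by ELISA in lysates of VEGF165-stimulated (100 ng/mL, 5 min) HUVEC that were serum-starved 24 h and then pre-exposed 1 h to compound across 8 doses in 0.3% DMSO. Unstimulated lysates defined 0% and stimulated vehicle lysates 100% activity; IC50 values come from 4-parameter logistic regression.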

[4] = biological target: Mer (phospho-Mer, MERTK-transfected 293A cells) (Homo sapiens (Human), UniProt Q12866); assay: Mer autophosphorylation ELISA in transient transfected 293A cells (Example H); assay type: cell-based; details: cellular activity; Mer autophosphorylation ELISA in transient transfected 293A cells
In short: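 IC50 from phospho-Mer ELISA of MERTK-transfected 293A cell lysates after 1 h treatment with serially diluted compound in serum-free medium.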

Chain of KDR (phospho-KDR, VEGF165-stimulated HUVEC cells) (P35968 20-1356): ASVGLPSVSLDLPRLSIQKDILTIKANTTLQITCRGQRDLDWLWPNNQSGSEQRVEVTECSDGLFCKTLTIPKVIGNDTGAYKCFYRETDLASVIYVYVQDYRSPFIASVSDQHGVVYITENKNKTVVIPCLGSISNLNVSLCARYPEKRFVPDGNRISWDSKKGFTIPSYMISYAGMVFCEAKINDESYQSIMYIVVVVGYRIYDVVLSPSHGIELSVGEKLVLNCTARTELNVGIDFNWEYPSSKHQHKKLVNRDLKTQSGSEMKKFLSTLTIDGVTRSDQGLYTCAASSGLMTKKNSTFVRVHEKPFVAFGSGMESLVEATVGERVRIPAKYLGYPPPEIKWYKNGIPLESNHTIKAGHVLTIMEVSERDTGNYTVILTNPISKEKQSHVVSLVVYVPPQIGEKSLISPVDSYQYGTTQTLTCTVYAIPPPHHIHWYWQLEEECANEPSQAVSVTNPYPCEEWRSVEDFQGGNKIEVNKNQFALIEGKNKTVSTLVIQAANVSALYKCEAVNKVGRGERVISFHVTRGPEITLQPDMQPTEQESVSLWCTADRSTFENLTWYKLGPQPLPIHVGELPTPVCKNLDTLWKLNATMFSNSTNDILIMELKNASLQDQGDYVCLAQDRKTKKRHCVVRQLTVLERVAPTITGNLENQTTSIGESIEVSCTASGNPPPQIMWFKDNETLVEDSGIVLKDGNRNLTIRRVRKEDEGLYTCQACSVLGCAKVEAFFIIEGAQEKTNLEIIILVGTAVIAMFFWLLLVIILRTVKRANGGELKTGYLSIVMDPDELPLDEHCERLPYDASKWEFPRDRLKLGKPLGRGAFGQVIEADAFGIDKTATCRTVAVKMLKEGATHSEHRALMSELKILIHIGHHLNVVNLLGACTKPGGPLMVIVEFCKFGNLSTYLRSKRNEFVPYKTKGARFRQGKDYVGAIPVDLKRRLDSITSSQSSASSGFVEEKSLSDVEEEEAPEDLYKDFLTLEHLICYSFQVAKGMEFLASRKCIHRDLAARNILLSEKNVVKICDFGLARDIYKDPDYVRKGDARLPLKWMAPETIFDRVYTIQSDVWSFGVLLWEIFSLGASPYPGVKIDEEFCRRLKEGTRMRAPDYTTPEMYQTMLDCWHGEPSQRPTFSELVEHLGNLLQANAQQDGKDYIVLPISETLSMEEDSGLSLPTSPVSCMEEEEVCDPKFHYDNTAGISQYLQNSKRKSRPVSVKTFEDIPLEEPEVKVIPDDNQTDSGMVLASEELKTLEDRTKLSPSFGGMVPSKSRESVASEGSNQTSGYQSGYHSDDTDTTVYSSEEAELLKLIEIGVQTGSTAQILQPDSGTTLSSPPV
Chain of Human KDR (residues 790-1356) (P35968 790-1356): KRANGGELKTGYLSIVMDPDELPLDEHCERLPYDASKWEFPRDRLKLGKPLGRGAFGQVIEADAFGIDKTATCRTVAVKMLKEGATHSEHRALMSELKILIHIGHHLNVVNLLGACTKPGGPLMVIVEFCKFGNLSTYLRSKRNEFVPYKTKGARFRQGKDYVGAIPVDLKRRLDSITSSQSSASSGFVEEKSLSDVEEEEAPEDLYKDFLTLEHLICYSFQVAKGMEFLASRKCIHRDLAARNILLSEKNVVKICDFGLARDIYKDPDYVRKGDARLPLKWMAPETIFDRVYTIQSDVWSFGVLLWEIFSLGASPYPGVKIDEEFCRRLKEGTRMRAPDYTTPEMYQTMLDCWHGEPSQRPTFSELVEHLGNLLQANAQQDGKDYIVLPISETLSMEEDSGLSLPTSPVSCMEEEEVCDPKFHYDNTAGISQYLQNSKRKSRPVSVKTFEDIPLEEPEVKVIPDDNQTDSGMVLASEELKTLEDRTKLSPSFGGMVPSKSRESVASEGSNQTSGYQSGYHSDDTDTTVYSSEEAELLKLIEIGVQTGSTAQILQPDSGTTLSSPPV
Chain of Human MET (residues 956-1390) (P08581 956-1390): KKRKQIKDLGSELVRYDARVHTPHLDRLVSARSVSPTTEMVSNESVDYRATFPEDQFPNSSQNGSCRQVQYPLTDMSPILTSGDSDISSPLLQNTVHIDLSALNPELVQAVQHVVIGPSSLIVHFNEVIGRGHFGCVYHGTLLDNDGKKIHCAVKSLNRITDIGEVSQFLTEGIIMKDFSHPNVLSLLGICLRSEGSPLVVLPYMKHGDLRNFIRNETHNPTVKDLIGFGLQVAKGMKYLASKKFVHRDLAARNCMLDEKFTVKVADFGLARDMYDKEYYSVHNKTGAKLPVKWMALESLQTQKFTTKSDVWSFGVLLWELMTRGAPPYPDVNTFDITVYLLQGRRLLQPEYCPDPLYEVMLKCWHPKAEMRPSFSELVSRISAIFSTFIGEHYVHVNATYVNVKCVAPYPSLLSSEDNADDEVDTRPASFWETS
Chain of Mer (phospho-Mer, MERTK-transfected 293A cells) (Q12866 21-999): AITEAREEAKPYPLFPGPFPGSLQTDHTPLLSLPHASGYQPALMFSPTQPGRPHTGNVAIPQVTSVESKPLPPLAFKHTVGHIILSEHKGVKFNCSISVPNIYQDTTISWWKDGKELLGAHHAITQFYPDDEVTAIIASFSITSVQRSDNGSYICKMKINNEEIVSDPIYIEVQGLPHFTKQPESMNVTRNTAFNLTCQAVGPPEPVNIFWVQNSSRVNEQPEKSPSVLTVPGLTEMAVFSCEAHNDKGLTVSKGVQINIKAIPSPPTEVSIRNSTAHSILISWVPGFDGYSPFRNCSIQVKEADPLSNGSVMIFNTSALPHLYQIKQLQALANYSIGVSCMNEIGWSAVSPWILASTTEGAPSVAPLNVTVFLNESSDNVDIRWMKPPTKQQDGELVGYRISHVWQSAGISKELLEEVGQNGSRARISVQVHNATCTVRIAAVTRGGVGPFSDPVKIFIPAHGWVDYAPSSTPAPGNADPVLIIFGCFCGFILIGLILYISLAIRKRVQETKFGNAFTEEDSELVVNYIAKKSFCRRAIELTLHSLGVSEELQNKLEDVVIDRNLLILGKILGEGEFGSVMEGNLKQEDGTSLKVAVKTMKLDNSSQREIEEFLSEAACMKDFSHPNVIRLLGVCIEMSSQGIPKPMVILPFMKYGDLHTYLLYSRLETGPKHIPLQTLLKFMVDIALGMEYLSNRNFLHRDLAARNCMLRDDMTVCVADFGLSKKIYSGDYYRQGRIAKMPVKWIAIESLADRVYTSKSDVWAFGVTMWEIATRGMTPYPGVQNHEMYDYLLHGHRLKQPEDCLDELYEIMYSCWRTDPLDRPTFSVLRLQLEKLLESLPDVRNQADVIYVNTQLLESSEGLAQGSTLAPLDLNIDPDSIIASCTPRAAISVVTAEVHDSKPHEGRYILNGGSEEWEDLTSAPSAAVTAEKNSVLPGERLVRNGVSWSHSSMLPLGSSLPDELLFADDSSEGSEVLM

With `COc1cnc2c(Oc3ccc(NC(=O)c4c(C)n(C)cc(-c5ccc(F)cc5)c4=O)cc3F)ccnc2c1` [Compound 239, N-[3-Fluoro-4-[(7-methoxy-1,5-naphthyridin-4-yl)oxy]phenyl]-5-(4-fluorophenyl)-1,2-dimethyl-4-oxopyridine-3-carboxamide] the IC50 [1] was > 300 nM, the IC50 [2] was < 100 nM and the IC50 [3] was > 300 nM. The IC50 [4] was < 100 nM.
With `CCc1nc(C)c(-c2ccc(F)cc2)c(O)c1C(=O)Nc1ccc(Oc2ccnc3cc(OC)c(OC)nc23)cc1` [Compound 197, N-[4-[(6,7-Dimethoxy-1,5-naphthyridin-4-yl)oxy]phenyl]-2-ethyl-5-(4-fluorophenyl)-4-hydroxy-6-methylpyridine-3-carboxamide] the IC50 [1] was < 100 nM, the IC50 [2] was < 100 nM and the IC50 [3] was < 100 nM. The IC50 [4] was < 100 nM.
For `COCCOc1nc2c(Oc3ccc(NC(=O)c4cn(C)c(C)c(-c5ccc(F)cc5)c4=O)cc3F)ccnc2cc1OC` [Compound 198, N-[3-Fluoro-4-[[7-methoxy-6-(2-methoxyethoxy)-1,5-naphthyridin-4-yl]oxy]phenyl]-5-(4-fluorophenyl)-1,6-dimethyl-4-oxopyridine-3-carboxamide], the IC50 [1] was 100 to 300 nM, the IC50 [2] was < 100 nM and the IC50 [3] was < 100 nM. The IC50 [4] was < 100 nM.
With `CCc1nc(C)c(-c2ccc(F)cc2C)c(O)c1C(=O)Nc1ccc(Oc2ccnc3ccc(OC)nc23)c(F)c1` [Compound 206, 2-Ethyl-N-[3-fluoro-4-[(6-methoxy-1,5-naphthyridin-4-yl)oxy]phenyl]-5-(4-fluoro-2-methylphenyl)-4-hydroxy-6-methylpyridine-3-carboxamide] the IC50 [1] was > 300 nM, the IC50 [2] was 100 to 300 nM and the IC50 [3] was < 100 nM. For the same compound, the IC50 [4] was < 100 nM.
With `COc1ccc2nccc(Oc3ccc(NC(=O)c4cnc(C)n(-c5ccc(F)cc5)c4=O)cc3F)c2n1` [Compound 232, N-[3-Fluoro-4-[(6-methoxy-1,5-naphthyridin-4-yl)oxy]phenyl]-1-(4-fluorophenyl)-2-methyl-6-oxopyrimidine-5-carboxamide] the IC50 [1] was > 300 nM, the IC50 [2] was < 100 nM and the IC50 [3] was 100 to 300 nM. The IC50 [4] was < 100 nM.
In the case of `CCc1nc(C)c(-c2ccc(F)cc2)c(O)c1C(=O)Nc1ccc(Oc2ccnc3cc(OC)cnc23)cc1` [Compound 188, 2-Ethyl-5-(4-fluorophenyl)-4-hydroxy-N-[4-[(7-methoxy-1,5-naphthyridin-4-yl)oxy]phenyl]-6-methylpyridine-3-carboxamide], the IC50 [1] is reported as < 100 nM, the IC50 [2] is reported as < 100 nM and the IC50 [3] is reported as < 100 nM. The IC50 [4] was < 100 nM.
With `COc1cnc2c(Oc3ccc(NC(=O)c4cnc(CO)c(-c5ccc(F)cc5)c4O)cc3F)ccnc2c1` [Compound 217, N-[3-Fluoro-4-[(7-methoxy-1,5-naphthyridin-4-yl)oxy]phenyl]-5-(4-fluorophenyl)-4-hydroxy-6-(hydroxymethyl)pyridine-3-carboxamide] the IC50 [1] was 100 to 300 nM, the IC50 [2] was < 100 nM and the IC50 [3] was < 100 nM. For the same compound, the IC50 [4] was < 100 nM.
`COc1cnc2c(Oc3ccc(NC(=O)c4cn(C)c(C)c(-c5ccc(F)cc5C)c4=O)cc3F)ccnc2c1` [Compound 181, N-[3-Fluoro-4-[(7-methoxy-1,5-naphthyridin-4-yl)oxy]phenyl]-5-(4-fluoro-2-methylphenyl)-1,6-dimethyl-4-oxopyridine-3-carboxamide] was tested, and the IC50 [1] was > 300 nM, the IC50 [2] was < 100 nM and the IC50 [3] was > 300 nM. The IC50 [4] was < 100 nM.
`COc1cnc2c(Oc3ccc(NC(=O)c4cnc(C(F)(F)F)c(-c5ccc(F)cc5)c4O)cc3F)ccnc2c1` [Compound 241, N-[3-Fluoro-4-[(7-methoxy-1,5-naphthyridin-4-yl)oxy]phenyl]-5-(4-fluorophenyl)-4-hydroxy-6-(trifluoromethyl)pyridine-3-carboxamide] was tested, and the IC50 [1] was > 300 nM, the IC50 [2] was 100 to 300 nM and the IC50 [3] was > 300 nM. For the same compound, the IC50 [4] was < 100 nM.
With `COc1ccc2nccc(Oc3ccc(NC(=O)c4n[nH]c(C)c(-c5ccc(F)cc5C)c4=O)cc3F)c2n1` [Compound 230, N-[3-Fluoro-4-[(6-methoxy-1,5-naphthyridin-4-yl)oxy]phenyl]-5-(4-fluoro-2-methylphenyl)-6-methyl-4-oxo-1H-pyridazine-3-carboxamide] the IC50 [1] was > 300 nM, the IC50 [2] was < 100 nM and the IC50 [3] was 100 to 300 nM. For the same compound, the IC50 [4] was < 100 nM.
For `COc1cc2nccc(Oc3ccc(NC(=O)c4cn(C(C)C)c(C)c(-c5ccc(F)cc5C)c4=O)cc3F)c2nc1OC` [Compound 32, N-[4-[(6,7-Dimethoxy-1,5-naphthyridin-4-yl)oxy]-3-fluorophenyl]-5-(4-fluoro-2-methylphenyl)-6-methyl-4-oxo-1-propan-2-ylpyridine-3-carboxamide hydrochloride], the IC50 [1] was 100 to 300 nM, the IC50 [2] was < 100 nM and the IC50 [3] was > 300 nM. For the same compound, the IC50 [4] was < 100 nM.
For `COc1cnc2c(Oc3ccc(NC(=O)c4ccc(C)n(-c5ccc(F)cc5)c4=O)cc3)ccnc2c1` [Compound 216, 1-(4-Fluorophenyl)-N-[4-[(7-methoxy-1,5-naphthyridin-4-yl)oxy]phenyl]-6-methyl-2-oxopyridine-3-carboxamide], the IC50 [1] was < 100 nM, the IC50 [2] was < 100 nM and the IC50 [3] was < 100 nM. For the same compound, the IC50 [4] was < 100 nM.
With `COCCOc1nc2c(Oc3ccc(NC(=O)c4c(COC)nc(C)c(-c5ccc(F)cc5)c4O)cc3F)ccnc2cc1OC` [Compound 199, N-[3-Fluoro-4-[[7-methoxy-6-(2-methoxyethoxy)-1,5-naphthyridin-4-yl]oxy]phenyl]-5-(4-fluorophenyl)-4-hydroxy-2-(methoxymethyl)-6-methylpyridine-3-carboxamide] the IC50 [1] was < 100 nM, the IC50 [2] was < 100 nM and the IC50 [3] was < 100 nM. For the same compound, the IC50 [4] was < 100 nM.
`COc1cc2nccc(Oc3ccc(NC(=O)c4cn(CC(F)(F)F)c(C)c(-c5ccc(F)cc5)c4=O)cc3F)c2cc1OC` [Compound 259, N-[4-(6,7-Dimethoxyquinolin-4-yl)oxy-3-fluorophenyl]-5-(4-fluorophenyl)-6-methyl-4-oxo-1-(2,2,2-trifluoroethyl)pyridine-3-carboxamide] gave an IC50 [1] of 100 to 300 nM, an IC50 [2] of 100 to 300 nM and an IC50 [3] of 100 to 300 nM. The IC50 [4] was < 100 nM.
In the case of `COc1cnc2c(Oc3ccc(NC(=O)c4n[nH]c(C)c(-c5ccc(F)cc5)c4=O)cc3)ccnc2c1` [Compound 245, 5-(4-Fluorophenyl)-N-[4-[(7-methoxy-1,5-naphthyridin-4-yl)oxy]phenyl]-6-methyl-4-oxo-1H-pyridazine-3-carboxamide], the IC50 [1] is reported as 100 to 300 nM, the IC50 [2] is reported as < 100 nM and the IC50 [3] is reported as < 100 nM. For the same compound, the IC50 [4] was < 100 nM.
With `CCc1nc(C)c(-c2ccc(F)cc2C)c(O)c1C(=O)Nc1ccc(Oc2ccnc3cc(OC)c(OC)nc23)c(F)c1` [Compound 202, N-[4-[(6,7-Dimethoxy-1,5-naphthyridin-4-yl)oxy]-3-fluorophenyl]-2-ethyl-5-(4-fluoro-2-methylphenyl)-4-hydroxy-6-methylpyridine-3-carboxamide] the IC50 [1] was 100 to 300 nM, the IC50 [2] was 100 to 300 nM and the IC50 [3] was < 100 nM. The IC50 [4] was < 100 nM.
`CCc1nc(C)c(-c2ccc(F)cc2)c(O)c1C(=O)Nc1ccc(Oc2ccnc3ccc(OC)nc23)c(F)c1` [Compound 182, 2-Ethyl-N-[3-fluoro-4-[(6-methoxy-1,5-naphthyridin-4-yl)oxy]phenyl]-5-(4-fluorophenyl)-4-hydroxy-6-methylpyridine-3-carboxamide] was tested, and the IC50 [1] was 100 to 300 nM, the IC50 [2] was < 100 nM and the IC50 [3] was < 100 nM. For the same compound, the IC50 [4] was < 100 nM.
